Our source for the IC50 values is ChEMBL document CHEMBL5726901, “Heterocyclic inhibitors of PTPN11” (2019).

A short description of the experiment: pERK AlphaScreen Protocol: KYSE-520 cells (10 k cells/well) were grown in 384-well plate in 20 uL of medium (RPMI-1640, without phenol red, containing 10% FBS) at 37° C. with 5% CO2 overnight. DMSO (control) or increasing concentrations of compounds were diluted in medium, added to the 384-well plate (5 uL/well, final DMSO concentration of 1%), and cells were then incubated with compounds for 2 hr. Phospho-ERK levels were measured using phospho-ERK1/2 AlphaScreen SureFire (PerkinElmer, TGRESB10K) following manufacturer's recommendations. Dose-response curves were analyzed using IC50 regression curve fitting (GeneData Screener). Curves were normalized to a high control without inhibitor (DMSO only), and low control (1 μM selumetinib). The conditions noted are these: KYSE-520, 2 h.

With `COc1ccc(CNc2nccc(C(=O)c3ncc(N4CCC(C)([C@@H](C)N[S+]([O-])C(C)(C)C)CC4)nc3Cl)c2Cl)cc1` (some centres not stated), the IC50 (as a rule, the concentration needed to halve the response being measured) stood at 100 nM. The value for `CC1(N)CCN(c2cnc3c(-c4cc(N)ccc4Cl)n[nH]c3n2)CC1` was 406 nM.
